Columns and labels:
Test in all cases: Synergistic herbicidal activity, foliar track sprayer
Type in all cases: in vivo
Details in all cases: methylidene mevalonate 933 g ae/ha alone, 14 days, 1% crop oil concentrate
[1] = system: wild oats (Avena fatua, AVEFA)
Protocol: (§1) Methylidene mevalonate alone and in combination with nonanoic acid was applied to the foliage of rapidly growing plant material utilizing a track sprayer calibrated to deliver an application volume of 187 L/ha. These treatments were applied to both broadleaf and grass weed species. All treatments contained 1% crop oil concentrate. Assessment of herbicidal activity was performed visually relative to untreated controls after 14 days incubation in the greenhouse. Species abbreviations are as previously defined.

[2] = system: crabgrass (Digitaria sanguinalis, DIGSA)
Protocol: as §1

[3] = system: lambsquarters (Chenopodium album, CHEAL)
Protocol: as §1

C=C(CO)C(C)(O)CC(=O)O (stereo not drawn) [methylidene mevalonate, 3-hydroxy-4-(hydroxymethyl)-3-methylpent-4-enoic acid]
Actual Injury % growth reduction [1]: 35% | Actual Injury % growth reduction [2]: 35% | Actual Injury % growth reduction [3]: 0%

Source: patent US7393812B2, “Methylidene mevalonates and their use as herbicides” (Dow AgroSciences LLC, priority 2004, dated 2008)
